Several values for one entry are separate records, joined by “and”; a condition that tells them apart may be missing. Equal entries are not always repeated. Where two headings read alike, the source gives them in different places.
Test system: DosRST regulon
Format: cell-based

C[C@@H]1CC[C@H]2[C@@H](C)C(=O)O[C@@H]3O[C@]4(C)CC[C@@H]1[C@]32OO4 [HC101A, artemisinin, reference compound]
downregulation of tgs1 gene (transcriptional profiling) (CDC1551, 40 μM, 6 days): ~100 fold | Counts per million (CPM) WT_HC101A (gene MT0055): 35.17 CPM and 29.03 CPM | log2 Fold change (gene MT0055): −1.288 | Counts per million (CPM) WT_HC101A (gene MT0062 (Rv0056 rp11)): 104.6 CPM and 99.67 CPM | log2 Fold change (gene MT0062 (Rv0056 rp11)): −1.059 | log2 Fold change (gene MT0086 Rv0079): −1.314 | Counts per million (CPM) WT_HC101A (gene MT0105 (Rv0096 PPE)): 8.529 CPM and 7.796 CPM | log2 Fold change (gene MT0105 (Rv0096 PPE)): −1.583 | Counts per million (CPM) WT_HC101A (gene MT0106 (Rv0097)): 24.38 CPM and 21.53 CPM | log2 Fold change (gene MT0106 (Rv0097)): −1.646 | Counts per million (CPM) WT_HC101A (gene MT0107 (Rv0098)): 11.7 CPM and 9.891 CPM | log2 Fold change (gene MT0107 (Rv0098)): −1.652 | Counts per million (CPM) WT_HC101A (gene MT0108 (Rv0099 fadD10)): 39.35 CPM and 32.64 CPM | log2 Fold change (gene MT0108 (Rv0099 fadD10)): −1.057 | Counts per million (CPM) WT_HC101A (gene MT0117): 157.5 CPM and 202.6 CPM | log2 Fold change (gene MT0117): −1.008 | Counts per million (CPM) WT_HC101A (gene MT0122 (Rv0113 gmhA)): 36.48 CPM and 25.54 CPM | log2 Fold change (gene MT0122 (Rv0113 gmhA)): −1.031 | Counts per million (CPM) WT_HC101A (gene MT0124): 5.295 CPM and 3.898 CPM | log2 Fold change (gene MT0124): −1.954 | Counts per million (CPM) WT_HC101A (gene MT0175 (Rv0166 fadD5)): 67.07 CPM and 45.73 CPM | log2 Fold change (gene MT0175 (Rv0166 fadD5)): −1.959 | Counts per million (CPM) WT_HC101A (gene MT0176): 118.5 CPM and 96.7 CPM | log2 Fold change (gene MT0176): −1.284 | Counts per million (CPM) WT_HC101A (gene MT0178 (Rv0169 mcel)): 178.5 CPM and 133.6 CPM | log2 Fold change (gene MT0178 (Rv0169 mcel)): −1.664 | log2 Fold change (gene MT0179 (Rv0170)): −1.755 | log2 Fold change (gene MT0180 (Rv0171)): −1.645 | log2 Fold change (gene MT0181 (Rv0172)): −1.502 | log2 Fold change (gene MT0182 (Rv0173 IprK)): −1.638 | log2 Fold change (gene MT0183 (Rv0174)): 1.264 | log2 Fold change (gene MT0241 (Rv0231 fadE4)): −1.266 | log2 Fold change (gene MT0244 (Rv0233 nrdB)): −1.533 | log2 Fold change (gene MT0329 (Rv0315)): −1.589 | log2 Fold change (gene MT0417): −1.313 | log2 Fold change (gene MT0423 (Rv0410c pknG)): −1.948 | log2 Fold change (gene MT0424 (Rv0411c glnH)): −1.654 | log2 Fold change (gene MT0425 (Rv0412c)): −1.504 | log2 Fold change (gene MT0429 (Rv0416)): −1.414 | log2 Fold change (gene MT0434): −1.079 | log2 Fold change (gene MT0524): −1.085 | log2 Fold change (gene MT0595 Rv0569): −2.701 | log2 Fold change (gene MT0596 Rv0570 nrdZ): −4.516 | log2 Fold change (gene MT0597 Rv0571c): −2.001 | log2 Fold change (gene MT0599 Rv0572c): −3.648 | log2 Fold change (gene MT0600): −4.304 | log2 Fold change (gene MT0601 Rv0573c): −2.988 | log2 Fold change (gene MT0602 Rv0574c): −3.56 | log2 Fold change (gene MT0637 (Rv0608)): −1.073 | log2 Fold change (gene MT0735 (Rv0708 rplP)): −1.134 | log2 Fold change (gene MT0736 (Rv0709 rpmC)): −1.065 | log2 Fold change (gene MT0741): −1.181 | log2 Fold change (gene MT0741.1 (Rv0715 rplX)): −1.23 | log2 Fold change (gene MT0742.1 (Rv0717 rpsN)): −1.057 | log2 Fold change (gene MT0747 (Rv0722 rpmD)): −1.393 | log2 Fold change (gene MT0846 Rv0824c desA1): −1.662 | log2 Fold change (gene MT0877 (Rv0854)): −1.066 | log2 Fold change (gene MT0898): −3.3 | log2 Fold change (gene MT0908 (Rv0885)): −1.929 | log2 Fold change (gene MT0909 (Rv0886 fprB)): −1.498 | log2 Fold change (gene MT0911 (Rv0888)): −2.361 | log2 Fold change (gene MT1002 (Rv0974c accD2)): −1.787 | log2 Fold change (gene MT1019 (Rv0990c)): −1.168 | log2 Fold change (gene MT1020): −1.37 | log2 Fold change (gene MT1056 (Rv1037c)): −1.377 | log2 Fold change (gene MT1095 Rv1065): −1.172 | Counts per million (CPM) WT_HC101A (gene MT1823 (Rv1773c)): 189.6 CPM and 111.2 CPM | log2 Fold change (gene MT1823 (Rv1773c)): −1.79 | Counts per million (CPM) WT_HC101A (gene MT1840 (Rv1791 PE)): 169.4 CPM and 147.4 CPM | log2 Fold change (gene MT1840 (Rv1791 PE)): −1.118 | Counts per million (CPM) WT_HC101A (gene MT1850 (Rv1812c)): 69.36 CPM and 114.1 CPM | log2 Fold change (gene MT1850 (Rv1812c)): −1.173 | log2 Fold change (gene MT1851 Rv1813c): −4.29 | Counts per million (CPM) WT_HC101A (gene MT1882 (Rv1834)): 28.5 CPM and 25.48 CPM | log2 Fold change (gene MT1882 (Rv1834)): −1.56 | Counts per million (CPM) WT_HC101A (gene MT1932): 219.8 CPM and 285.7 CPM | log2 Fold change (gene MT1932): −1.182 | Counts per million (CPM) WT_HC101A (gene MT1942): 74.52 CPM and 69.7 CPM | log2 Fold change (gene MT1942): −1.048 | Counts per million (CPM) WT_HC101A (gene MT1943): 65.44 CPM and 61.15 CPM | log2 Fold change (gene MT1943): −1.048 | Counts per million (CPM) WT_HC101A (gene MT1955 (Rv1904)): 88.58 CPM and 104.4 CPM | log2 Fold change (gene MT1955 (Rv1904)): −1.006 | Counts per million (CPM) WT_HC101A (gene MT1959 (Rv1918c PPE)): 62.82 CPM and 65.51 CPM | log2 Fold change (gene MT1959 (Rv1918c PPE)): −1.121 | Counts per million (CPM) WT_HC101A (gene MT1986 (Rv1936)): 47.53 CPM and 27.87 CPM | log2 Fold change (gene MT1986 (Rv1936)): −2.373 | Counts per million (CPM) WT_HC101A (gene MT1987 (Rv1937)): 66.35 CPM and 34.04 CPM | log2 Fold change (gene MT1987 (Rv1937)): −2.295 | Counts per million (CPM) WT_HC101A (gene MT1988 (Rv1938 cphB)): 24.12 CPM and 13.5 CPM | log2 Fold change (gene MT1988 (Rv1938 cphB)): −2.344 | Counts per million (CPM) WT_HC101A (gene MT1989 (Rv1939)): 13.56 CPM and 7.389 CPM | log2 Fold change (gene MT1989 (Rv1939)): −2.045 | Counts per million (CPM) WT_HC101A (gene MT2007): 22.23 CPM and 14.6 CPM | log2 Fold change (gene MT2007): −1.243 | Counts per million (CPM) WT_HC101A (gene MT2016 (Rv1964)): 104.5 CPM and 57.78 CPM | log2 Fold change (gene MT2016 (Rv1964)): −1.754 | Counts per million (CPM) WT_HC101A (gene MT2017): 43.41 CPM and 25.54 CPM | log2 Fold change (gene MT2017): −2.544 | Counts per million (CPM) WT_HC101A (gene MT2018 (Rv1966 mce3)): 50.34 CPM and 26.88 CPM | log2 Fold change (gene MT2018 (Rv1966 mce3)): −2.558 | Counts per million (CPM) WT_HC101A (gene MT2019 (Rv1967)): 52.89 CPM and 27.87 CPM | log2 Fold change (gene MT2019 (Rv1967)): −2.496 | log2 Fold change (gene MT2020 Rv1968): −2.621 | Counts per million (CPM) WT_HC101A (gene MT2021 (Rv1969)): 23.73 CPM and 17.45 CPM | log2 Fold change (gene MT2021 (Rv1969)): −1.799 | Counts per million (CPM) WT_HC101A (gene MT2022 (Rv1970 lprM)): 37.39 CPM and 24.44 CPM | log2 Fold change (gene MT2022 (Rv1970 lprM)): −2.347 | Counts per million (CPM) WT_HC101A (gene MT2023 (Rv1971)): 53.54 CPM and 31.19 CPM | log2 Fold change (gene MT2023 (Rv1971)): −2.293 | Counts per million (CPM) WT_HC101A (gene MT2024 (Rv1972)): 16.15 CPM and 10.41 CPM | log2 Fold change (gene MT2024 (Rv1972)): −1.124 | Counts per million (CPM) WT_HC101A (gene MT2042.1): 19.87 CPM and 29.96 CPM | log2 Fold change (gene MT2042.1): −1.522 | Counts per million (CPM) WT_HC101A (gene MT2050 (Rv2004c)): 234 CPM and 227.9 CPM | log2 Fold change (gene MT2050 (Rv2004c)): −3.602 | Counts per million (CPM) WT_HC101A (gene MT2051 (Rv2005c)): 149.3 CPM and 179.3 CPM | log2 Fold change (gene MT2051 (Rv2005c)): −3.859 | Counts per million (CPM) WT_HC101A (gene MT2052 (Rv1996)): 177.9 CPM and 195.4 CPM | log2 Fold change (gene MT2052 (Rv1996)): −7.087 | Counts per million (CPM) WT_HC101A (gene MT2052 (Rv2006 otsB)): 122.8 CPM and 137.5 CPM | log2 Fold change (gene MT2052 (Rv2006 otsB)): −2.478 | Counts per million (CPM) WT_HC101A (gene MT2053 (Rv1997 ctpF)): 70.21 CPM and 92.04 CPM | log2 Fold change (gene MT2053 (Rv1997 ctpF)): 4.931 | log2 Fold change (gene MT2053 (Rv2007c fdxA)): −3.149 | Counts per million (CPM) WT_HC101A (gene MT2059 (Rv2003c)): 101.8 CPM and 119.9 CPM | log2 Fold change (gene MT2059 (Rv2003c)): −2.726 | Counts per million (CPM) WT_HC101A (gene MT2079 (Rv2023c)): 11.24 CPM and 12.86 CPM | log2 Fold change (gene MT2079 (Rv2023c)): −1.5 | Counts per million (CPM) WT_HC101A (gene MT2080): 28.31 CPM and 33.92 CPM | log2 Fold change (gene MT2080): −1.521 | Counts per million (CPM) WT_HC101A (gene MT2086 (Rv2027c)): 56.35 CPM and 58.94 CPM | log2 Fold change (gene MT2086 (Rv2027c)): −2.22 | log2 Fold change (gene MT2087 Rv2028c): −3.553 | Counts per million (CPM) WT_HC101A (gene MT2088): 91.91 CPM and 170.4 CPM | log2 Fold change (gene MT2088): −4.873 | log2 Fold change (gene MT2089 Rv2030c): −4.16 | log2 Fold change (gene MT2090): −5.249 | log2 Fold change (gene MT2091 Rv2032): −4.893 | Counts per million (CPM) WT_HC101A (gene MT2156 (Rv2107 PE)): 20.07 CPM and 13.38 CPM | log2 Fold change (gene MT2156 (Rv2107 PE)): −1.59 | Counts per million (CPM) WT_HC101A (gene MT2278 (Rv2220 glnAl)): 436.2 CPM and 385.9 CPM | log2 Fold change (gene MT2278 (Rv2220 glnAl)): −1.475 | Counts per million (CPM) WT_HC101A (gene MT2304 (Rv2244 acpM)): 626.7 CPM and 987.4 CPM | log2 Fold change (gene MT2304 (Rv2244 acpM)): −2.163 | log2 Fold change (gene MT2305 (Rv2245 kasA)): −1.728 | Counts per million (CPM) WT_HC101A (gene MT2306): 581.8 CPM and 834.9 CPM | log2 Fold change (gene MT2306): −1.559 | log2 Fold change (gene MT2307 (Rv2247 accD6)): −1.121 | Counts per million (CPM) WT_HC101A (gene MT2329 (Rv2267c)): 24.25 CPM and 27 CPM | log2 Fold change (gene MT2329 (Rv2267c)): −1.234
